For this series the following is noted: in vivo. From the text:
An LD₅₀ could so far not be determined.

Molecules are shown by their SMILES.

Take `CC[C@H](C)[C@@H]1NC(=O)[C@H](CCCNC(=N)N)NC(=O)[C@H](CC(=O)O)NC(=O)[C@H](CCSC)NC(=O)[C@H](CCCNC(=N)N)NC(=O)CNC(=O)CNC(=O)[C@H](Cc2ccccc2)NC(=O)[C@@H](NC(=O)[C@H](CO)NC(=O)[C@H](CO)NC(=O)[C@H](CCCNC(=N)N)NC(=O)[C@H](CCCNC(=N)N)NC(=O)[C@H](CC(C)C)NC(=O)[C@@H](N)CO)CSSC[C@@H](C(=O)N[C@@H](CC(N)=O)C(=O)N[C@@H](CO)C(=O)N[C@@H](Cc2ccccc2)C(=O)N[C@@H](CCCNC(=N)N)C(=O)N[C@@H](Cc2ccc(O)cc2)C(=O)O)NC(=O)CNC(=O)[C@H](CC(C)C)NC(=O)CNC(=O)[C@H](CO)NC(=O)[C@H](CCC(N)=O)NC(=O)[C@H](C)NC(=O)CNC1=O` [alpha-hANaP, alpha-human atrial natriuretic peptide]: the “side-effects to the heart and circulation system, to the bronchial system, to the liver and renal functions, to the gonads, and to the central nervous system” value is given as “No serious side-effects”.

(Values after patent EP0182984B1, “Use of fully synthetic alpha-human atrial natriuretic peptide (alpha-hANap)” (PHARMA BISSENDORF PEPTIDE GMBH, priority 1984, dated 1992).)
